# Reference: US11034672B1, “Tyrosine kinase inhibitor compositions, methods of making and methods of use” (Black Diamond Therapeutics, Inc., priority 2018, dated 2021)
# Tests used:
# Type in all cases: cell-based
# EGFR WT [1] = target: T1, EGFR WT (Homo sapiens, UniProt P00533); test: Activity for inhibiting EGFR (Table A), EGFR WT; conditions: read-out: EGFR WT, potency code (IC50)
# EGFR V3 [2] = target: T2, EGFR V3 (Homo sapiens, UniProt P00533, DELINS30-297G); test: Activity for inhibiting EGFR (Table A), EGFR V3 (EGFR-Viii); conditions: read-out: EGFR V3, potency code (IC50)
# T2 construct: expressed in transfected cells; host or cells: BaF3 (murine pro-B), retroviral pMXs-IRES-Blasticidin
# T2 sequence (P00533 with tags, fused parts or gaps DELINS30-297G): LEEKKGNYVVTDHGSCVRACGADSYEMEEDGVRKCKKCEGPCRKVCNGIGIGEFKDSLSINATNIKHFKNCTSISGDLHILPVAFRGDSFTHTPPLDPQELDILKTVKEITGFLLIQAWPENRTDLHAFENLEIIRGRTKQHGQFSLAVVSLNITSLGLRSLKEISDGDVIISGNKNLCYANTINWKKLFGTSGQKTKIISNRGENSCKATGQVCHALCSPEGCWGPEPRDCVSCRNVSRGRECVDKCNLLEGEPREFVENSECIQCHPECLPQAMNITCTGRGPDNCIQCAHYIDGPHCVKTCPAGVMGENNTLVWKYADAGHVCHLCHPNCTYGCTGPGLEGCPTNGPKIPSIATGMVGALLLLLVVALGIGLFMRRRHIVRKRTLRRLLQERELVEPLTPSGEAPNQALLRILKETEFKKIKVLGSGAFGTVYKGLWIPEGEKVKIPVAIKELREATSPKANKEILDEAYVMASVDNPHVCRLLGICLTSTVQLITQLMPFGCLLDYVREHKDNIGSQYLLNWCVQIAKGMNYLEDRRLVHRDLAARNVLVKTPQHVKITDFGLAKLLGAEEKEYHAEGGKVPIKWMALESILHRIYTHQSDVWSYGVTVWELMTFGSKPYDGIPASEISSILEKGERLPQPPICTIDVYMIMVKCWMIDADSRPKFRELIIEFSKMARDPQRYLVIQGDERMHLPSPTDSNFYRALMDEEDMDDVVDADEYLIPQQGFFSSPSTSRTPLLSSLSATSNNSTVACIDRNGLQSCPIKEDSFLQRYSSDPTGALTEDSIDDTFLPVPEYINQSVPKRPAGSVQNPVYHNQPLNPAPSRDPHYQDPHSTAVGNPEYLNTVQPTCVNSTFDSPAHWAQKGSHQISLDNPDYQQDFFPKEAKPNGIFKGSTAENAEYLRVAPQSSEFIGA
# HER2 YVMA [3] = target: T3, HER2 YVMA (Homo sapiens, UniProt P04626, INS775YVMA); test: BaF3 cell proliferation assay, HER2 YVMA (Table B); conditions: potency code, 3 days, CellTiterGlo, read-out: HER2 YVMA (Activity for Inhibiting HER2)
# T3 construct: expressed in transfected cells; host or cells: BaF3 (murine pro-B)
# T3 sequence (P04626 with tags, fused parts or gaps INS775YVMA): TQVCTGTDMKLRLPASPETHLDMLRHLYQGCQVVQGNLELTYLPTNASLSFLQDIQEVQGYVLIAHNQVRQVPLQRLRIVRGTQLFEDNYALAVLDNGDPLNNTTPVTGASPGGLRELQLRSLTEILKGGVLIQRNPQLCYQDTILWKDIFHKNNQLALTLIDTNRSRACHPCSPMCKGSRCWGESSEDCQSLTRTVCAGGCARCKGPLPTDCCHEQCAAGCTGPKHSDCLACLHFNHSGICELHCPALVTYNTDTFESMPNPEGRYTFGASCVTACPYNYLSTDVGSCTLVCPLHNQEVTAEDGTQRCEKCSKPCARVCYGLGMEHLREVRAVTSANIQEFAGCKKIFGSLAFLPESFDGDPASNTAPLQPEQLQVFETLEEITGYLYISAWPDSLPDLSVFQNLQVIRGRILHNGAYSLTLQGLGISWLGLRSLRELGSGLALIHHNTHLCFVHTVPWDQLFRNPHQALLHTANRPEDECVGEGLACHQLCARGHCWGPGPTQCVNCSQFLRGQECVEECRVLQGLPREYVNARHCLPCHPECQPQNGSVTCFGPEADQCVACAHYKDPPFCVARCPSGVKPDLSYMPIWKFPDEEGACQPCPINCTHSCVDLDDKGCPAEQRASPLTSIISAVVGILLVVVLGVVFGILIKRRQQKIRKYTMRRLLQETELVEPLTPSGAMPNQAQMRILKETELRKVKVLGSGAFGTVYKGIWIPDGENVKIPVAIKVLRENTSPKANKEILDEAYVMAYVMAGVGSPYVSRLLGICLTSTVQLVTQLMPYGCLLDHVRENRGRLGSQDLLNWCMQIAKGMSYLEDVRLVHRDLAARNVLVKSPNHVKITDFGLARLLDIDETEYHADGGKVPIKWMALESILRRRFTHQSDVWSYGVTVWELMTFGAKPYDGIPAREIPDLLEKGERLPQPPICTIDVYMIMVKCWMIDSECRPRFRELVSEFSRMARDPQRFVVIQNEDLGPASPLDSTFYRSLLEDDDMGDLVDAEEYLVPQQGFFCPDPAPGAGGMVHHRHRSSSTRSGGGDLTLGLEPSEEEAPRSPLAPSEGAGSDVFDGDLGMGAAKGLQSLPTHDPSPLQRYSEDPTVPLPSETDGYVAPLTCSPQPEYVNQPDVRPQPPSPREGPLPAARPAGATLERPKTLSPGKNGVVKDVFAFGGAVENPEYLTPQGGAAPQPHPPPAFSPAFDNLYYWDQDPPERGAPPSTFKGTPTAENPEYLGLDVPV
# EGFR WT [4] = target: T1, EGFR WT; test: BaF3 cell proliferation assay, EGFR WT (Table A); conditions: potency code, 3 days, CellTiterGlo, read-out: EGFR WT (Activity for Inhibiting EGFR)
# Description: (§1) Retroviral Production: EGFR mutants were subcloned into pMXs-IRES-Blasticidin (RTV-016, Cell Biolabs, San Diego, Calif.). Retroviral expression vector retrovirus was produced by transient transfection of HEK 293T cells with the retroviral EGFR mutant expression vector pMXs-IRES-Blasticidin (RTV-016, Cell Biolabs), pCMV-Gag-Pol vector and pCMV-VSV-G-Envelope vector. Briefly, HEK 293T/17 cells were plated in 100 mm collagen coated plate (354450, Corning Life Sciences, Tewksbury, Mass.) (4×10^5 per plate) and incubated overnight. The next day, retroviral plasmids (3 μg of EGFR mutant, 1.0 μg of pCMV-Gag-Pol and 0.5 μg pCMV-VSV-G) were mixed in 500 μl of Optimem (31985, Life Technologies). The mixture was incubated at room temperature for 5 min and then added to Optimem containing transfection reagent Lipofectamine (11668, Invitrogen) and incubated for 20 minutes. Mixture was then added dropwise to HEK 293T cells. The next day the medium was replaced with fresh culture medium and retrovirus was harvested @ 24 and 48 hrs.
# (§2) Generation of EGFR mutant stable cell lines: BaF3 cells (1.5E5 cells) were infected with 1 ml of viral supernatant supplemented with 8 μg/ml polybrene by centrifuging for 30 min at 1000 rpm. Cells were placed in a 37° C. incubator overnight. Cells were then spun for 5 minutes to pellet the cells. Supernatant was removed and cells re-infected a fresh 1 ml of viral supernatant supplemented with 8 μg/ml polybrene by centrifuging for 30 min at 1000 rpm. Cells were placed in 37° C. incubator overnight. […] After 48 hours cells were selected for retroviral infection in 10 μg/ml Blasticidin for one week. Blasticidin resistant populations were washed twice in phosphate buffered saline before plating in media lacking IL-3 to select for IL-3 independent growth.
# (§3) EC50 values were determined with the same application.
# HER2 YVMA [5] = target: T3, HER2 YVMA; test: Activity for inhibiting HER2 (Table B), HER2 YVMA; conditions: read-out: HER2 YVMA, potency code (IC50)
# Description: as §3
# HER2 S310F [6] = target: T4, HER2 S310F (Homo sapiens, UniProt P04626, S310F); test: BaF3 cell proliferation assay, HER2 S310F (Table B); conditions: potency code, 3 days, CellTiterGlo, read-out: HER2 S310F (Activity for Inhibiting HER2)
# T4 construct: expressed in transfected cells; host or cells: BaF3 (murine pro-B)
# T4 sequence (P04626 23-1255 S310F): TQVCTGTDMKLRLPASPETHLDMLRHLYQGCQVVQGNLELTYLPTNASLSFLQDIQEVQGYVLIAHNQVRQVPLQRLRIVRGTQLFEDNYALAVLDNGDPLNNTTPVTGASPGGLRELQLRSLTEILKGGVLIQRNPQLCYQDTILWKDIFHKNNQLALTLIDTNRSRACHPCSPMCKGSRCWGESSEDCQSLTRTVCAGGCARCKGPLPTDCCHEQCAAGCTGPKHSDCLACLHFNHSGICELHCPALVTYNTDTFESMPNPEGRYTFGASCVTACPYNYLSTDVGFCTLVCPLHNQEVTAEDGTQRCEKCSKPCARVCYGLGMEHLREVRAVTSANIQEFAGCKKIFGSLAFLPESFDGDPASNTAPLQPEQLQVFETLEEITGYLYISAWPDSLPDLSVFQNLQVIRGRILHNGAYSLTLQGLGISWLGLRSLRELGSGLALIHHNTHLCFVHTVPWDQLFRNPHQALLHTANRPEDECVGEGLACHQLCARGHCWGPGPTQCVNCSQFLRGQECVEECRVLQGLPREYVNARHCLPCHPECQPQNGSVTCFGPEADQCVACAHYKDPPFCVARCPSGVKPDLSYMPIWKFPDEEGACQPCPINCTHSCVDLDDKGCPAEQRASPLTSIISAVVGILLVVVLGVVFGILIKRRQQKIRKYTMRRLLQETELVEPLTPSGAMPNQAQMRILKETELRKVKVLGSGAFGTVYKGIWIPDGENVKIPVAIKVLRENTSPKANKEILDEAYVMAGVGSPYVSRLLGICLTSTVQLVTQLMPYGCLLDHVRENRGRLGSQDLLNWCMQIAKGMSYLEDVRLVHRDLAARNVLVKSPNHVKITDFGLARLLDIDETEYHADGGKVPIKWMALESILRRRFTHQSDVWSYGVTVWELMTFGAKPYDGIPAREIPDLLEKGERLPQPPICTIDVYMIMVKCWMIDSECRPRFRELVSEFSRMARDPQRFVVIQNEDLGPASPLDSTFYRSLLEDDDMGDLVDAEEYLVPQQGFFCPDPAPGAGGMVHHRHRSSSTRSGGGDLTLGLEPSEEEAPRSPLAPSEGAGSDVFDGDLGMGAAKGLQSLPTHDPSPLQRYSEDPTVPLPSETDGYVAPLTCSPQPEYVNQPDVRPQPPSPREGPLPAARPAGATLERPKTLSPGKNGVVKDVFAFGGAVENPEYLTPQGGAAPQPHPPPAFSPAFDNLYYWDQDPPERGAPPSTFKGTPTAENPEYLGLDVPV
# HER2 S310F [7] = target: T4, HER2 S310F; test: Activity for inhibiting HER2 (Table B), HER2 S310F; conditions: read-out: HER2 S310F, potency code (IC50)
# Description: as §3
# EGFR V3 [8] = target: T2, EGFR V3; test: BaF3 cell proliferation assay, EGFR V3 (Table A); conditions: potency code, 3 days, CellTiterGlo, read-out: EGFR V3 (Activity for Inhibiting EGFR)
# Description: as §1, §2, §3
# T1 sequence (P00533 25-1210 N540K): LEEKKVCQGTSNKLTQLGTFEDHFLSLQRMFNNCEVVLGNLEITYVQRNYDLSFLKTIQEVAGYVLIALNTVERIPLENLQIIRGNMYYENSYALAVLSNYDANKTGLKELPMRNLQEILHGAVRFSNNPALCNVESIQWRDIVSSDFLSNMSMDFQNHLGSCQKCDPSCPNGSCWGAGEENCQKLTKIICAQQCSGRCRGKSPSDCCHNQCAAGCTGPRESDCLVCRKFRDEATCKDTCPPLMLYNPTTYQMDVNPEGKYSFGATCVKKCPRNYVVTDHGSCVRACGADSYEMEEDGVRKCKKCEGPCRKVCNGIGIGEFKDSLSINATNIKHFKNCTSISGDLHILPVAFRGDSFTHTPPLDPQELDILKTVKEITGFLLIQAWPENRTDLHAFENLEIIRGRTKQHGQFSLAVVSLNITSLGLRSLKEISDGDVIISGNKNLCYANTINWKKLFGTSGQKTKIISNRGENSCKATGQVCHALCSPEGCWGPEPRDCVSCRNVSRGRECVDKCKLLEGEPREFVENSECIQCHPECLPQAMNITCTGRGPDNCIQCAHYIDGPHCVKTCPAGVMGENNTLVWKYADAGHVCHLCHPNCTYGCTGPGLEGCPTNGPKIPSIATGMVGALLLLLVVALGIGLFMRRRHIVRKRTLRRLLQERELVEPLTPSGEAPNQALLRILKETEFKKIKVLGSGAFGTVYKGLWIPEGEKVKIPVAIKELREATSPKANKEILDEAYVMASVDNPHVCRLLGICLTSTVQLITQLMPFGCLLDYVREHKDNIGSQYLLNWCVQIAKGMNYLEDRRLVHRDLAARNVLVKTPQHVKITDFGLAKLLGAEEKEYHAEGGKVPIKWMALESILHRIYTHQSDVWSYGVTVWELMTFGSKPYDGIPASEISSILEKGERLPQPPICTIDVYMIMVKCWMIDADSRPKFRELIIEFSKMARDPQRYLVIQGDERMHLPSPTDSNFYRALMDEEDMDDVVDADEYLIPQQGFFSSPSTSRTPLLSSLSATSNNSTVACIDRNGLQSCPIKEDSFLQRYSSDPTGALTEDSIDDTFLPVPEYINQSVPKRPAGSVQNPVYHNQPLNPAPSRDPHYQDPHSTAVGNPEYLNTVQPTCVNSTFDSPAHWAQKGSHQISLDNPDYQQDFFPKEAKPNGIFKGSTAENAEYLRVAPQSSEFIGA
IC50 (EGFR WT [1]) [nM],IC50 (EGFR V3 [2]) [nM],IC50 (HER2 YVMA [3]) [nM],IC50 (EGFR WT [4]) [nM],IC50 (HER2 YVMA [5]) [nM],IC50 (HER2 S310F [6]) [nM],IC50 (HER2 S310F [7]) [nM],IC50 (EGFR V3 [8]) [nM],SMILES
> 1000,300 to 500,> 1000,> 1000,> 1000,300 to 500,300 to 500,300 to 500,C=CC(=O)Nc1cc2c(Nc3ccc(OCc4ccccn4)cn3)ncnc2cc1OC1CCN(C)C1 (centres unmarked) [compound 61]
300 to 500,30 to 50,300 to 500,300 to 500,300 to 500,30 to 50,30 to 50,30 to 50,"C=CC(=O)Nc1cc2c(Nc3ccc(OCc4ccccn4)c(Cl)c3)ncnc2cc1OCC(C)(C)N(C)C [compound 94, N-(4-((3-chloro-4-(pyridin-2-ylmethoxy)phenyl)amino)-7-(2-(dimethylamino)-2-methylpropoxy)quinazolin-6-yl)acrylamide]"
> 1000,100 to 200,300 to 500,> 1000,300 to 500,100 to 200,100 to 200,100 to 200,C=CC(=O)Nc1cc2c(Nc3ccc(Oc4cccnc4)cc3)ncnc2cc1OCCN1CCOCC1 [compound 75]
> 1000,300 to 500,> 1000,> 1000,> 1000,300 to 500,300 to 500,300 to 500,C=CC(=O)Nc1cc2c(Nc3ccc(OCc4ccccn4)nc3)ncnc2cc1O[C@@H]1CCN(C)C1 [compound 72]
100 to 200,50 to 100,50 to 100,100 to 200,50 to 100,30 to 50,30 to 50,50 to 100,C=CC(=O)Nc1cc2c(Nc3ccc(OCc4cccc(C)n4)c(Cl)c3)ncnc2cc1OCCCN1CC(OC)C1 [compound 138]
300 to 500,50 to 100,100 to 200,300 to 500,100 to 200,30 to 50,30 to 50,50 to 100,"CC#CC(=O)Nc1cc2c(Nc3ccc(OCc4ccncn4)c(Cl)c3)ncnc2cc1OCCCN1CCOCC1 [compound 164, N-(4-((3-chloro-4-(pyrimidin-4-ylmethoxy)phenyl)amino)-7-(3-morpholinopropoxy)quinazolin-6-yl)but-2-ynamide]"
100 to 200,20 to 30,30 to 50,100 to 200,30 to 50,5 to 10,5 to 10,20 to 30,"C=CC(=O)Nc1cc2c(Nc3ccc(OCc4ccccn4)c(Cl)c3)ncnc2cc1OCC[C@H]1CCCN1C [compound 95, N-(4-((3-chloro-4-(pyridin-2-ylmethoxy)phenyl)amino)-7-(2-(1-methylpyrrolidin-2-yl)ethoxy)quinazolin-6-yl)acrylamide]"
> 1000,30 to 50,50 to 100,> 1000,50 to 100,10 to 20,10 to 20,30 to 50,C=CC(=O)Nc1cc2c(Nc3ccc(OCc4cccnn4)c(Cl)c3)ncnc2cc1OCCCN1CCOCC1 [compound 167]
100 to 200,50 to 100,30 to 50,100 to 200,30 to 50,10 to 20,10 to 20,50 to 100,"CC#CC(=O)Nc1cc2c(Nc3cc(Cl)c(OCc4cccc(F)c4)cc3F)ncnc2cc1OCCN1CCOCC1 [compound 149, N-(4-((5-chloro-2-fluoro-4-((3-fluorobenzyl)oxy)phenyl)amino)-7-(2-morpholinoethoxy)quinazolin-6-yl)but-2-ynamide]"
200 to 300,30 to 50,50 to 100,200 to 300,50 to 100,30 to 50,30 to 50,30 to 50,C=CC(=O)Nc1cc2c(Nc3ccc(OCc4ccccn4)c(Cl)c3)ncnc2cc1OCCN1CC2(CCN2C)C1 [compound 115]
100 to 200,30 to 50,50 to 100,100 to 200,50 to 100,5 to 10,5 to 10,30 to 50,"CC#CC(=O)Nc1cc2c(Nc3cc(Cl)c(OCc4cccc(F)c4)cc3F)ncnc2cc1OCCN1CC(OC)C1 [compound 152, N-(4-((5-chloro-2-fluoro-4-((3-fluorobenzyl)oxy)phenyl)amino)-7-(2-(3-methoxyazetidin-1-yl)ethoxy)quinazolin-6-yl)but-2-ynamide]"
200 to 300,30 to 50,100 to 200,200 to 300,100 to 200,30 to 50,30 to 50,30 to 50,C=CC(=O)Nc1cc2c(Nc3ccc(OCc4cccc(F)n4)c(Cl)c3)ncnc2cc1OCCCN1C[C@@H]2C[C@H]1CO2 [compound 161]
500 to 1000,30 to 50,30 to 50,500 to 1000,30 to 50,10 to 20,10 to 20,30 to 50,C=CC(=O)Nc1cc2c(Nc3ccc(OCc4cnccn4)c(Cl)c3)ncnc2cc1OCCCN1CC(OC)C1 [compound 179]
200 to 300,30 to 50,50 to 100,200 to 300,50 to 100,10 to 20,10 to 20,30 to 50,"C=CC(=O)Nc1cc2c(Nc3ccc(OCc4ccccn4)c(Cl)c3)ncnc2cc1OC[C@H]1C[C@@H]2CN(C)C[C@@H]2C1 [compound 103, N-(4-((3-chloro-4-(pyridin-2-ylmethoxy)phenyl)amino)-7-(((3aR,5s,6aS)-2-methyloctahydrocyclopenta[c]pyrrol-5-yl)methoxy)quinazolin-6-yl)acrylamide]"
> 1000,50 to 100,200 to 300,> 1000,200 to 300,30 to 50,30 to 50,50 to 100,C=CC(=O)Nc1cc2c(Nc3ccc(OCc4cccc(F)n4)c(Cl)c3)ncnc2cc1OCCN1CC2CCC(C1)O2 [compound 156]
100 to 200,50 to 100,500 to 1000,100 to 200,500 to 1000,50 to 100,50 to 100,50 to 100,C=CC(=O)Nc1cc2c(Nc3ccc(OCc4ccccn4)cc3)ncnc2cc1OCCN1CCC(N(C)C)CC1 [compound 80]
500 to 1000,100 to 200,300 to 500,500 to 1000,300 to 500,100 to 200,100 to 200,100 to 200,C=CC(=O)Nc1cc2c(Nc3ccc(OCc4cccc(C)n4)c(Cl)c3)ncnc2cc1OCCN1CCOCC1 [compound 128]
> 1000,30 to 50,100 to 200,> 1000,100 to 200,30 to 50,30 to 50,30 to 50,C=CC(=O)Nc1cc2c(Nc3ccc(OCc4ncccn4)c(Cl)c3)ncnc2cc1OCCCN1CCOCC1 [compound 166]
200 to 300,100 to 200,300 to 500,200 to 300,300 to 500,30 to 50,30 to 50,100 to 200,C=CC(=O)Nc1cc2c(Nc3ccc(OCc4cccc(F)c4)c(Cl)c3)ncnc2cc1OCCN1CCN(C)CC1 [compound 130]
